Assay [1] has as its target Kappa-type opioid receptor (Homo sapiens, UniProt P41145). Briefly: GPCRScan assay: inhibition of KOR. Set-up: radioligand conc. used [nm] 0.6 – 1.2, parental cells stable HEK.
Assay [2] concerns the target Alpha-2B adrenergic receptor (Homo sapiens, UniProt P18089). Briefly: GPCRScan assay: inhibition of Alpha2B. Set-up: radioligand conc. used [nm] 1.5 – 2.0, parental cells HEKT.
Assay [3] concerns Tyrosine-protein kinase ABL1 (Homo sapiens), P00519 [Q252H]. The conditions noted are these: Compound concentration 1000.0 nM.
Assay [4] deals with Tyrosine-protein kinase ABL1 (Homo sapiens), P00519 [T315I]. Conditions: Compound concentration 1000.0 nM.
Assay [5] addresses Activin receptor type-1 (Homo sapiens) (UniProt Q04771). The conditions noted are these: Compound concentration 1000.0 nM.
Assay [6] has as its target Activin receptor type-2B (Homo sapiens) (UniProt Q13705). The conditions noted are these: Compound concentration 1000.0 nM.
Assay [7] deals with 5'-AMP-activated protein kinase catalytic subunit alpha-2 (Homo sapiens) (UniProt P54646). Conditions: Compound concentration 1000.0 nM.
For assay [8], the target named is Cyclin-dependent kinase 11B (Homo sapiens) (UniProt P21127). Conditions: Compound concentration 1000.0 nM.
Assay [9] concerns the target Serine/threonine-protein kinase Chk1 (Homo sapiens) (UniProt O14757). Conditions: Compound concentration 1000.0 nM.
Assay [10] has as its target Macrophage colony-stimulating factor 1 receptor (Homo sapiens) (UniProt P07333). Conditions: Compound concentration 1000.0 nM.
Assay [11] concerns the target Death-associated protein kinase 2 (Homo sapiens) (UniProt Q9UIK4). The conditions noted are these: Compound concentration 1000.0 nM.
Assay [12] deals with Epithelial discoidin domain-containing receptor 1 (Homo sapiens) (UniProt Q08345). The conditions noted are these: Compound concentration 1000.0 nM.
The target in assay [13] is Serine/threonine-protein kinase 17A (Homo sapiens) (UniProt Q9UEE5). Conditions: Compound concentration 1000.0 nM.
The target in assay [14] is Ephrin type-A receptor 2 (Homo sapiens) (UniProt P29317). The conditions noted are these: Compound concentration 1000.0 nM.
For assay [15], the system named is Receptor-type tyrosine-protein kinase FLT3 (Homo sapiens), P36888 [UNDEFINED MUTATION]. Conditions: Compound concentration 1000.0 nM.
Assay [16] concerns the target Glycogen synthase kinase-3 alpha (Homo sapiens) (UniProt P49840). The conditions noted are these: Compound concentration 1000.0 nM.
Assay [17] deals with Tyrosine-protein kinase HCK (Homo sapiens) (UniProt P08631). The conditions noted are these: Compound concentration 1000.0 nM.
The target in assay [18] is Serine/threonine-protein kinase ICK (Homo sapiens) (UniProt Q9UPZ9). Conditions: Compound concentration 1000.0 nM.
Assay [19] concerns the target Tyrosine-protein kinase JAK3 (Homo sapiens) (UniProt P52333). The conditions noted are these: Compound concentration 1000.0 nM.
Assay [20] addresses LIM domain kinase 2 (Homo sapiens) (UniProt P53671). The conditions noted are these: Compound concentration 1000.0 nM.
In assay [21] the target is Serine/threonine-protein kinase MAK (Homo sapiens) (UniProt P20794). The conditions noted are these: Compound concentration 1000.0 nM.
The target of assay [22] is Mitogen-activated protein kinase kinase kinase 2 (Homo sapiens) (UniProt Q9Y2U5). Conditions: Compound concentration 1000.0 nM.
In assay [23] the target is MAP kinase-activated protein kinase 2 (Homo sapiens) (UniProt P49137). Conditions: Compound concentration 1000.0 nM.
Assay [24] concerns the target Serine/threonine-protein kinase MARK1 (Homo sapiens) (UniProt Q9P0L2). Conditions: Compound concentration 1000.0 nM.
The target in assay [25] is MAP kinase-interacting serine/threonine-protein kinase 1 (Homo sapiens) (UniProt Q9BUB5). The conditions noted are these: Compound concentration 1000.0 nM.
Sequence of MAP kinase-interacting serine/threonine-protein kinase 1 (Homo sapiens) (Q9BUB5 whole entry, looked up): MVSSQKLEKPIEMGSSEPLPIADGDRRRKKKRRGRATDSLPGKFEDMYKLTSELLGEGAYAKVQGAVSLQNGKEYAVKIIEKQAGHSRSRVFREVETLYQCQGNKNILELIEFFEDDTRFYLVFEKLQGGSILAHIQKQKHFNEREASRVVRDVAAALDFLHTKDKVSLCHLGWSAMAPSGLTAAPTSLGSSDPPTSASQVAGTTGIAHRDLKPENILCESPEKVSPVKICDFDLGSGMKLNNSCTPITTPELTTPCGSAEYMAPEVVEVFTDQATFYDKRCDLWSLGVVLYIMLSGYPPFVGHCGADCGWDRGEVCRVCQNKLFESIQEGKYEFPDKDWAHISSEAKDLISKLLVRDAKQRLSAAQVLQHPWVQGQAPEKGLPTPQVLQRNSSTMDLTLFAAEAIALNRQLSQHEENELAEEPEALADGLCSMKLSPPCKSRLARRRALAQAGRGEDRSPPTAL
The target of assay [26] is Mitogen-activated protein kinase kinase kinase 10 (Homo sapiens) (UniProt Q02779). Conditions: Compound concentration 1000.0 nM.
Assay [27] addresses Serine/threonine-protein kinase MRCK alpha (Homo sapiens) (UniProt Q5VT25). Conditions: Compound concentration 1000.0 nM.
Assay [28] deals with Serine/threonine-protein kinase 26 (Homo sapiens) (UniProt Q9P289). Conditions: Compound concentration 1000.0 nM.
Assay [29] addresses Serine/threonine-protein kinase Nek5 (Homo sapiens) (UniProt Q6P3R8). Conditions: Compound concentration 1000.0 nM.
Assay [30] deals with Mitogen-activated protein kinase 14 (Homo sapiens) (UniProt Q16539). Conditions: Compound concentration 1000.0 nM.
Sequence of Mitogen-activated protein kinase 14 (Homo sapiens) (Q16539 whole entry): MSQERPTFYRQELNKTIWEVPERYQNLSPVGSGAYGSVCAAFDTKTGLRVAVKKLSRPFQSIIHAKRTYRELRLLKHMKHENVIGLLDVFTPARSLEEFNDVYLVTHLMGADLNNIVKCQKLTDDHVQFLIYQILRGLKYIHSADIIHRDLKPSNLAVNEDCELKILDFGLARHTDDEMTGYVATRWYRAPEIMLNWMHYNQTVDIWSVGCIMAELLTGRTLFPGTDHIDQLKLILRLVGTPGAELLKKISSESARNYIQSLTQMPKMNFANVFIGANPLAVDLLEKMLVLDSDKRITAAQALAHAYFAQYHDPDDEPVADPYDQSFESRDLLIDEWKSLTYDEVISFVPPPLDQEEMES
In assay [31] the target is Cyclin-dependent kinase 14 (Homo sapiens) (UniProt O94921). Conditions: Compound concentration 1000.0 nM.
Assay [32] has as its target Serine/threonine-protein kinase pim-1 (Homo sapiens) (UniProt P11309). Conditions: Compound concentration 1000.0 nM.
In assay [33] the target is cAMP-dependent protein kinase catalytic subunit alpha (Homo sapiens) (UniProt P17612). Conditions: Compound concentration 1000.0 nM.
In assay [34] the target is Serine/threonine-protein kinase PLK4 (Homo sapiens) (UniProt O00444). Conditions: Compound concentration 1000.0 nM.
In assay [35] the target is Receptor-interacting serine/threonine-protein kinase 2 (Homo sapiens) (UniProt O43353). The conditions noted are these: Compound concentration 1000.0 nM.
Assay [36] deals with Serine/threonine-protein kinase SBK1 (Homo sapiens) (UniProt Q52WX2). Conditions: Compound concentration 1000.0 nM.
Assay [37] addresses Uncharacterized serine/threonine-protein kinase SBK3 (Homo sapiens) (UniProt P0C264). The conditions noted are these: Compound concentration 1000.0 nM.
The target of assay [38] is Serine/threonine-protein kinase Sgk3 (Homo sapiens) (UniProt Q96BR1). The conditions noted are these: Compound concentration 1000.0 nM.
Assay [39] addresses SNF-related serine/threonine-protein kinase (Homo sapiens) (UniProt Q9NRH2). Conditions: Compound concentration 1000.0 nM.
Assay [40] addresses Serine/threonine-protein kinase 33 (Homo sapiens) (UniProt Q9BYT3). Conditions: Compound concentration 1000.0 nM.
The target in assay [41] is Tyrosine-protein kinase Tec (Homo sapiens) (UniProt P42680). The conditions noted are these: Compound concentration 1000.0 nM.
The target of assay [42] is Serine/threonine-protein kinase tousled-like 2 (Homo sapiens) (UniProt Q86UE8). Conditions: Compound concentration 1000.0 nM.
Sequence of Serine/threonine-protein kinase tousled-like 2 (Homo sapiens) (Q86UE8 whole entry, looked up): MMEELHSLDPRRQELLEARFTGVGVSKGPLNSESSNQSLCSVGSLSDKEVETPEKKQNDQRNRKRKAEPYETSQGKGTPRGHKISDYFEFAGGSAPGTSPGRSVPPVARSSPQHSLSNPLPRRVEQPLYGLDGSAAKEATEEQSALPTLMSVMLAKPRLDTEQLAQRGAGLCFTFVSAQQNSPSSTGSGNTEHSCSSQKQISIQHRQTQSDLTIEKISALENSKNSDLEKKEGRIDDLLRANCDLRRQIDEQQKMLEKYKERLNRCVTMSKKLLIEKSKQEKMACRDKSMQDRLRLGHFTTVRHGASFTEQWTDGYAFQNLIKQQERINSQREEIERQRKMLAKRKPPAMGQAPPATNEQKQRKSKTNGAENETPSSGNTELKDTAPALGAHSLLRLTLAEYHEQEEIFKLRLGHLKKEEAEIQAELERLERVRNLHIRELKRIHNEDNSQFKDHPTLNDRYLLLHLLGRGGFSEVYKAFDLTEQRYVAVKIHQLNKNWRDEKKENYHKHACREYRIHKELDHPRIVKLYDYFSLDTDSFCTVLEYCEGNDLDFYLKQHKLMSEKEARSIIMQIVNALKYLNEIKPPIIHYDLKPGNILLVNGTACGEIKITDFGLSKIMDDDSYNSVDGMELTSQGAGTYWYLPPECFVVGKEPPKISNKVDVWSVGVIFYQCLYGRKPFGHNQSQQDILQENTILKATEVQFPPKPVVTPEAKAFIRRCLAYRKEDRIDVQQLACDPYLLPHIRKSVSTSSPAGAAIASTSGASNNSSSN
Assay [43] concerns the target Dual specificity protein kinase TTK (Homo sapiens) (UniProt P33981). Conditions: Compound concentration 1000.0 nM.
Assay [44] deals with Wee1-like protein kinase (Homo sapiens) (UniProt P30291). Conditions: Compound concentration 1000.0 nM.
Assay [45] has as its target Mitogen-activated protein kinase kinase kinase 19 (Homo sapiens) (UniProt Q56UN5). The conditions noted are these: Compound concentration 1000.0 nM.

Sequence of Kappa-type opioid receptor (P41145 whole entry): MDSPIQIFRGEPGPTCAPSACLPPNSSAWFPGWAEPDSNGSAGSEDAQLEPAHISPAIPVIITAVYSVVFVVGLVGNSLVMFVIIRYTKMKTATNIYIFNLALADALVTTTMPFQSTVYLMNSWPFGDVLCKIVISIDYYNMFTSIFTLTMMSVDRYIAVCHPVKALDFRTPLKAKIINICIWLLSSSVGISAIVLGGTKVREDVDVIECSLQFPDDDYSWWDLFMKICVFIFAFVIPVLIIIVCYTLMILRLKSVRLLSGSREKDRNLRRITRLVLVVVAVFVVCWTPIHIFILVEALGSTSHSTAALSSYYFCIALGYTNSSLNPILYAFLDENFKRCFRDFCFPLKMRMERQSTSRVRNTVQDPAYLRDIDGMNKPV
Sequence of Glycogen synthase kinase-3 alpha (Homo sapiens) (P49840 2-483 limits assumed): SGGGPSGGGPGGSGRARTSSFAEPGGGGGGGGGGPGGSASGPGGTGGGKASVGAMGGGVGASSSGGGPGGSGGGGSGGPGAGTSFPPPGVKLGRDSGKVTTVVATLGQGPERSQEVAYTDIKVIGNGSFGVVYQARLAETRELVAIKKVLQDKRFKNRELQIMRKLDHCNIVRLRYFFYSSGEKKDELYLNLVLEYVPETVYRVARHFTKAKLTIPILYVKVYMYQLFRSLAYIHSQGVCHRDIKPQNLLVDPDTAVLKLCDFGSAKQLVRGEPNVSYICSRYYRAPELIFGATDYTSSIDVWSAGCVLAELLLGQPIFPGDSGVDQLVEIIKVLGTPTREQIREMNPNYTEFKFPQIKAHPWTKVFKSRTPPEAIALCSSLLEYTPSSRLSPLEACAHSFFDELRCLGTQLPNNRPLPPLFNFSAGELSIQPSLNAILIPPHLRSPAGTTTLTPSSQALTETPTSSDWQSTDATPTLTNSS
Sequence of Activin receptor type-1 (Homo sapiens) (Q04771 whole entry): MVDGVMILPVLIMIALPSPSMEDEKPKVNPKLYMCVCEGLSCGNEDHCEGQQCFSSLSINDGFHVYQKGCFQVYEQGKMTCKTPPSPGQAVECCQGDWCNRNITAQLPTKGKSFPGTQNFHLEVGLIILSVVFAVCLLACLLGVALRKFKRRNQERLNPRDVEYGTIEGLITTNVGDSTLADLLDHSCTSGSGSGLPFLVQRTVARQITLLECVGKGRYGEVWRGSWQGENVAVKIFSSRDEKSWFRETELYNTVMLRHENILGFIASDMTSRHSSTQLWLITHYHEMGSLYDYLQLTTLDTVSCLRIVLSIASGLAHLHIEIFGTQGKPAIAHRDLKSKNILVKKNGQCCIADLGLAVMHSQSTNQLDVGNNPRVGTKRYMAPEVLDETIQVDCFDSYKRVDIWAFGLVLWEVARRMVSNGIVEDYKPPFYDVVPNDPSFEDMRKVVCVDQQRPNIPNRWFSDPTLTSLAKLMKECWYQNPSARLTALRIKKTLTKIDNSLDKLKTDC
Sequence of Dual specificity protein kinase TTK (Homo sapiens) (P33981 whole entry): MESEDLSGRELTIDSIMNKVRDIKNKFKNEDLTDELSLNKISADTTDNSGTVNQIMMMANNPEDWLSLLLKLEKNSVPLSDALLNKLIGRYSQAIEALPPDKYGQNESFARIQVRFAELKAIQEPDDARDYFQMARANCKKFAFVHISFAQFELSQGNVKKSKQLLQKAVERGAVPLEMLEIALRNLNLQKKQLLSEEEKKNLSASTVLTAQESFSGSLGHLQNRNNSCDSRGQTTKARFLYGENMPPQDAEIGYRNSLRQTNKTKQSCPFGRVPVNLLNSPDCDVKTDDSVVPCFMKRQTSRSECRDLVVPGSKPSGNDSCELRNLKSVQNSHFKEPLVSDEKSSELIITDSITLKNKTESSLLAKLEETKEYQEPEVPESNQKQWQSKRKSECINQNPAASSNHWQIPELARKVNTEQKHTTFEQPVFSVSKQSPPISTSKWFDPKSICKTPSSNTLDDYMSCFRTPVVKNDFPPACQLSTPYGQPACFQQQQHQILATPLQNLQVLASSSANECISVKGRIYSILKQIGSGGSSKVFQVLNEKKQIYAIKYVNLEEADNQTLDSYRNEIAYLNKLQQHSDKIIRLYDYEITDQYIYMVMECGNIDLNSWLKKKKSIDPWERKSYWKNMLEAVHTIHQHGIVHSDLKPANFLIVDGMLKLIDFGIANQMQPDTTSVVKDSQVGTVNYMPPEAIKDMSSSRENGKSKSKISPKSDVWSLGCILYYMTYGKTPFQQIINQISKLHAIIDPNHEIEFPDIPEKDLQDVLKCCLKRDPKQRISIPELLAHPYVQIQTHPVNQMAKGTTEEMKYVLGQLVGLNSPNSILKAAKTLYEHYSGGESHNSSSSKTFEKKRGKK
Sequence of Tyrosine-protein kinase JAK3 (Homo sapiens) (P52333 whole entry, the tested form may be a part): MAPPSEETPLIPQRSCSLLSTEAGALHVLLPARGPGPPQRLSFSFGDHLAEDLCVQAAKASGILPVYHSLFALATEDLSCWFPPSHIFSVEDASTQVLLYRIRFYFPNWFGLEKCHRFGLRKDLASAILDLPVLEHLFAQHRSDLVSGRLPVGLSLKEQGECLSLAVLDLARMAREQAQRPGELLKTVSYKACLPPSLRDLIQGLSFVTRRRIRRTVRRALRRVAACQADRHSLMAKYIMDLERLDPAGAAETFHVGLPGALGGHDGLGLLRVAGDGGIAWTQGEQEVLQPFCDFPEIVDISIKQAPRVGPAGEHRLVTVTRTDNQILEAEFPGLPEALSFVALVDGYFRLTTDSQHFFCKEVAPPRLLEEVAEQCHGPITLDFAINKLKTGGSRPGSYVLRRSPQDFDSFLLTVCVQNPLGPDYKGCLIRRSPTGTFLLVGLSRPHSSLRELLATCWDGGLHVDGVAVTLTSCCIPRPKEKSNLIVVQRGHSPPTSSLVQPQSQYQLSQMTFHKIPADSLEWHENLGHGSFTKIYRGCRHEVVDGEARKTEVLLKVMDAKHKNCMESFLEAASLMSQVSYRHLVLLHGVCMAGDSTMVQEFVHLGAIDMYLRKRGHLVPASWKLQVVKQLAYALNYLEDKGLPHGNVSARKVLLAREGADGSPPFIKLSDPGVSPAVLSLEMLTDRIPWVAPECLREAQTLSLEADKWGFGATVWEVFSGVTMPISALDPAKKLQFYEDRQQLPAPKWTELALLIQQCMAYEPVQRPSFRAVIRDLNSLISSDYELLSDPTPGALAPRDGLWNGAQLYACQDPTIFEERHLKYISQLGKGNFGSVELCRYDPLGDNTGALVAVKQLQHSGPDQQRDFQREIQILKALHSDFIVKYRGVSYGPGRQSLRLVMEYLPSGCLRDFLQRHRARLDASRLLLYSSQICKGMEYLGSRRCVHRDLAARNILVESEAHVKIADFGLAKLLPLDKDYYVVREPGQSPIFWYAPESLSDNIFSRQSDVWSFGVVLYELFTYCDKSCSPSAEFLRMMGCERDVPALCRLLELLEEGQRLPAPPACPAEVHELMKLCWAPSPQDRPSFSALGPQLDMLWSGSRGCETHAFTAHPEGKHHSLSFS

For `CC(C)(C)OC(=O)N1CCCC1CNC1CCC(c2cc(F)ccc2F)(S(=O)(=O)c2ccc(Cl)cc2)CC1` (stereo unspecified) [GSI-NC], the Ki in assay [1] (read-out: Ki) was 3.3 µM; in assay [1] (read-out: pKi (converted)) it was 3.31 µM; in assay [2], 0.879 µM.

On to `O=S(=O)(NC1CCC(c2cc(F)ccc2F)(S(=O)(=O)c2ccc(Cl)cc2)CC1)C(F)(F)F` (stereo unspecified) [MRK-560], for which the residual activity is 84% in assay [3]; 85% in [4]; 92% in assay [5]; 95% in [6]; 96% in assay [7]; 82% in assay [8]. Besides, the residual activity is 100% in assay [9]; 100% in assay [10]; 96% in [11]; 100% in assay [12]; 86% in [13]; 84% in assay [14]. Moreover, the residual activity in [15] is 91%; in [16] it was 87%; in assay [17], 85%; in assay [18] it was 85%; in assay [19] it was 100%; in assay [20], 87%. The residual activity is 100% in assay [21]; 98% in assay [22]; 93% in assay [23]; 100% in [24]; 93% in assay [25]; 100% in assay [26]. For the same compound, the residual activity was 91% in assay [27]; 85% in assay [28]; 100% in assay [29]; 100% in assay [30]; 100% in [31]; 100% in [32]. Also, the residual activity in assay [33] was 100%; in assay [34], 100%; in assay [35], 84%; in assay [36], 75%; in assay [37], 93%; in assay [38] it was 89%. Also, the residual activity in assay [39] is 100%; in assay [40], 76%; in assay [41], 100%; in assay [42], 100%; in assay [43] it was 70%; in [44] it was 90%. In addition, the residual activity in [45] is 84%.

The values are drawn from ChEMBL document CHEMBL4507288 (2021).
